Measurements taken from article PMC10803372 (Cell Death & Disease, 2024).

Target: T1, PIKfyve (Homo sapiens, UniProt Q9Y2I7)
T1 construct: Recombinant GST-PIKfyve (full-length, #11-118)
Assay: in vitro lipid kinase assay, ADP-Glo luminescence, PI([…])P substrate
Type: biochemical

T1 sequence (Q9Y2I7 2-2098): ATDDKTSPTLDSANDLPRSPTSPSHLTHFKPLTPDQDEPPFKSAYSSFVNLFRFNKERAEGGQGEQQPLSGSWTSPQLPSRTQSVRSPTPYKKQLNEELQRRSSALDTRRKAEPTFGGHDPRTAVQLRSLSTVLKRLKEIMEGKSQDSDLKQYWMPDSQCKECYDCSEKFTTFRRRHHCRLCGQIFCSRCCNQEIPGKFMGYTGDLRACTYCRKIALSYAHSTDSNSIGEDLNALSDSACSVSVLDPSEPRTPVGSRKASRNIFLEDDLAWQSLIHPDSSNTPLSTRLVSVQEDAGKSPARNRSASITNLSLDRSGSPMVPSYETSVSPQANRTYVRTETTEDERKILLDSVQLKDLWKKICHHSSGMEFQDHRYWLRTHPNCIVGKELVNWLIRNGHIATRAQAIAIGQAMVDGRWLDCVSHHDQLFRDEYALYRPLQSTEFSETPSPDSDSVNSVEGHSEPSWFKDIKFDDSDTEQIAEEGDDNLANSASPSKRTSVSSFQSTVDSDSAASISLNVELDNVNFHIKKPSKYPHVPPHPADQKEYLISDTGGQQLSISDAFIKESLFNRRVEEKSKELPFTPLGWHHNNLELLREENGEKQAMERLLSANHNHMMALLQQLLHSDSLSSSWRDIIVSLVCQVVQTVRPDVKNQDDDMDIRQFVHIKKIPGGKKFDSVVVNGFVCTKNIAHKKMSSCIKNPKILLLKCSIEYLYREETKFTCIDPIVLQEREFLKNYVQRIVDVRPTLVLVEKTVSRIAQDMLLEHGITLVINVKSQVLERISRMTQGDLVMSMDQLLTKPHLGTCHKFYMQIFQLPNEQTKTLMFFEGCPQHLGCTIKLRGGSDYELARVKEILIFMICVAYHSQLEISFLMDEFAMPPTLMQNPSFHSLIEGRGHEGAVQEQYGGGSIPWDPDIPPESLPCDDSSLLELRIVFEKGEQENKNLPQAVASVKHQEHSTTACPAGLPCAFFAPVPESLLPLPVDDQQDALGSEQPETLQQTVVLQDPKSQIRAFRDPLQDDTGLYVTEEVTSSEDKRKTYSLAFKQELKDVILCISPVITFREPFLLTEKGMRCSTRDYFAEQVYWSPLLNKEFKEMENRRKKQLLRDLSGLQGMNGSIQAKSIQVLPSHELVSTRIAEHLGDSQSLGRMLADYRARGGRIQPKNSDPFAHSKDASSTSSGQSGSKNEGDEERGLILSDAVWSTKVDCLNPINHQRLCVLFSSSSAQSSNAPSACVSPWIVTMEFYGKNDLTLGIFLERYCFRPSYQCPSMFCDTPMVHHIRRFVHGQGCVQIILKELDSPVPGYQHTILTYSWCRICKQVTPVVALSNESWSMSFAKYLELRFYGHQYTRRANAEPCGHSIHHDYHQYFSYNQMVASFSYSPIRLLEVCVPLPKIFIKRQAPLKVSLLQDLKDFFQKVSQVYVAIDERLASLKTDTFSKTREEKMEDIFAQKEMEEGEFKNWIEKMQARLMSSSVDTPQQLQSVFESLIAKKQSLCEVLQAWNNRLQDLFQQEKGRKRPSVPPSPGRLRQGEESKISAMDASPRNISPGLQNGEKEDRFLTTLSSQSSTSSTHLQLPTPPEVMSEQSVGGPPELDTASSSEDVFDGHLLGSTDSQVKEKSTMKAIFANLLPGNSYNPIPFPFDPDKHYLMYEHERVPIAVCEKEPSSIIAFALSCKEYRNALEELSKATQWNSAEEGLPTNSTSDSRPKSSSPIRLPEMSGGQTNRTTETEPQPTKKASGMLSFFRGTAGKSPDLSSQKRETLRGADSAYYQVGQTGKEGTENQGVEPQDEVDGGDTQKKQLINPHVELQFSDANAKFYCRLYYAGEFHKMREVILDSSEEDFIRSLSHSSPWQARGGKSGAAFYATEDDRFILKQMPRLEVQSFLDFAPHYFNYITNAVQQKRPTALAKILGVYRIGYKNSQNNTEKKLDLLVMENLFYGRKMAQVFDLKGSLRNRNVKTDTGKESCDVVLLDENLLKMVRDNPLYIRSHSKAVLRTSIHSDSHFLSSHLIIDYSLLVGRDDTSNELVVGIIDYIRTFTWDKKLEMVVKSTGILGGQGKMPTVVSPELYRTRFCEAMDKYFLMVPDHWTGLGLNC

- IC50: 355 ± 36.2 nM
Structure (SMILES): Oc1ccc(-c2nc(-c3ccncc3)c(-c3ccc(F)cc3)[nH]2)cc1 [SB202190]
